Measured values published in patent US8309582B2, “Small molecule Bcl-Xl/Bcl-2 binding inhibitors” (The Ohio State University Research Foundation, priority 2004, dated 2012).
Read-outs that look alike come from different tables or passages of the source.

Legend:
Bcl-xL = molecular target: T1, Bcl-xL (Homo sapiens, UniProt Q07817); assay: Competitive fluorescence polarization assay, displacement of Flu-BakBH3 peptide from Bcl-xL; type: binding
T1 construct: fused on or other part: His tag
Experimental: (§1) Competitive Fluorescence Polarization Assay. The binding affinity of the test agent to Bcl-2 and Bcl-xL was analyzed by a competitive fluorescence polarization assay, in which the ability of the agent to displace the binding of a Bak BH3-domain peptide to either Bcl-2 or Bcl-xL was determined. Flu-BakBH3, a Bak-BH3 peptide labeled at the N-terminus with fluorescein, was purchased from Genemed Synthesis (San Francisco, Calif.). C-Terminal-truncated, His-tagged Bcl-xL was purchased from EMD Biosciences (San Diego, Calif.), and soluble GST-fused Bcl-2 was obtained from Santa Cruz (Santa Cruz, Calif.). The KD determination was carried out in a dual-pathlength quartz cell with readings taken at […] at room temperature using a luminescence spectrometer according to an established procedure (17). Determination of IC50 values. Data from cell viability and FP assays were analyzed by using the CalcuSyn software (Biosoft, Ferguson, Mo.) to determine IC50 values, in which the calculation was based on the medium effect equation (18), i.e., Log(fa/fu)=m log(D)−m log(Dm) (equation 1), where fa and fu denote fraction affected and unaffected, respectively; m represents the Hill-type coefficient signifying the sigmoidicity of the dose-effect curve; D and Dm are the dose used and IC50, respectively.

Bcl-2 = Bcl-2 (Homo sapiens, UniProt P10415); assay: Competitive fluorescence polarization assay, displacement of Flu-BakBH3 peptide from Bcl-2; type: binding
Experimental: as §1

PC-3 cells = assay: Cell viability analysis (MTT) in PC-3 cells; type: cell-based; settings: read-out: IC50 (μM) PC3
Experimental: Cell viability analysis. The effect of individual test agents on cell viability was assessed by using the MTT {[3-(4,5-dimethylthiazol-2-yl)-2,5-diphenyl-2H-tetrazolium bromide]} assay in six to twelve replicates. […] Controls received DMSO vehicle at a concentration equal to that in drug-treated cells. […] Supernatants were removed from the wells, and the reduced MTT dye was solubilized in 200 μl/well DMSO. Absorbance at 570 nm was determined on a plate reader.
(§2) Determination of IC50 values. Data from cell viability and FP assays were analyzed by using the CalcuSyn software (Biosoft, Ferguson, Mo.) to determine IC50 values, in which the calculation was based on the medium effect equation (18), i.e., Log(fa/fu)=m log(D)−m log(Dm) (equation 1), where fa and fu denote fraction affected and unaffected, respectively; m represents the Hill-type coefficient signifying the sigmoidicity of the dose-effect curve; D and Dm are the dose used and IC50, respectively.

LNCaP cells = assay: Cell viability analysis (MTT) in LNCaP cells; type: cell-based; settings: Homo sapiens
Experimental: (§3) Cell viability analysis. The effect of individual test agents on cell viability was assessed by using the MTT {[3-(4,5-dimethylthiazol-2-yl)-2,5-diphenyl-2H-tetrazolium bromide]} assay in six to twelve replicates. Cells were seeded and incubated in 96-well, flat-bottomed plates in serum-free media for 24 h, and were exposed to various concentrations of test agents dissolved in DMSO (final concentration, 0.1%) in serum-free RPMI 1640 medium for different time intervals. Controls received DMSO vehicle at a concentration equal to that in drug-treated cells. The medium was removed, replaced by 200 μl of 0.5 mg/ml of MTT in 10% FBS-containing RPMI-1640 medium, and cells were incubated in the CO2 incubator at 37° C. for 2 h. Supernatants were removed from the wells, and the reduced MTT dye was solubilized in 200 μl/well DMSO. Absorbance at 570 nm was determined on a plate reader.
as §2

[1] = MTT assay (IC50 for MTT, Tables 1-9); type: cell-based; settings: cell line and unit inferred
Experimental: as §3, §2

[2] = WB (IC50 for WB, Tables 1-9); type: cell-based; settings: marker, cell line and unit inferred
Experimental: (§4) Immunoblotting. Cells in T-75 flasks were collected by scraping, and suspended in 60 μl of phosphate-buffered saline (PBS). Two μl of the suspension was taken for protein analysis using the Bradford assay kit (Bio-Rad, Hercules, Calif.). To the remaining solution was added the same volume of 2×SDS-PAGE sample loading buffer (100 mM Tris-HCl, pH 6.8, 4% SDS, 5% β-mercaptoethanol 20% glycerol, and 0.1% bromophenol blue). The mixture was sonicated briefly, and boiled for 5 min. Equal amounts of proteins were loaded onto 10% SDS-PAGE gels.
(§5) After electrophoresis, protein bands were transferred to nitrocellulose membranes in a semidry transfer cell. The transblotted membrane was washed twice with Tris-buffered saline (TBS) containing 0.1% Tween 20 (TBST). After blocking with TBST containing 5% nonfat milk for 40 min, the membrane was incubated with the appropriate primary antibody in TBST-1% nonfat milk at 4° C. overnight. All primary antibodies were diluted 1:1000 in 1% nonfat milk-containing TBST. After treatment with the primary antibody, the membrane was washed three times with TBST for a total of 15 min, followed by incubation with goat anti-rabbit or anti-mouse IgG-horseradish peroxidase conjugates (diluted 1:5000) for 1 h at room temperature and three washes with TBST for a total of 1 h. The immunoblots were visualized by enhanced chemiluminescence.

PPARγ = molecular target: T2, PPARγ (Homo sapiens, UniProt P37231); assay: Analysis of PPARγ activation (transcription factor ELISA, PC-3 nuclear extracts); type: cell-based; settings: PC-3 cells, 10 μM, 48 h, versus DMSO vehicle
T2 construct: endogenous in cells; host or cells: PC-3 prostate cancer cells
T2 sequence (P37231 1-505): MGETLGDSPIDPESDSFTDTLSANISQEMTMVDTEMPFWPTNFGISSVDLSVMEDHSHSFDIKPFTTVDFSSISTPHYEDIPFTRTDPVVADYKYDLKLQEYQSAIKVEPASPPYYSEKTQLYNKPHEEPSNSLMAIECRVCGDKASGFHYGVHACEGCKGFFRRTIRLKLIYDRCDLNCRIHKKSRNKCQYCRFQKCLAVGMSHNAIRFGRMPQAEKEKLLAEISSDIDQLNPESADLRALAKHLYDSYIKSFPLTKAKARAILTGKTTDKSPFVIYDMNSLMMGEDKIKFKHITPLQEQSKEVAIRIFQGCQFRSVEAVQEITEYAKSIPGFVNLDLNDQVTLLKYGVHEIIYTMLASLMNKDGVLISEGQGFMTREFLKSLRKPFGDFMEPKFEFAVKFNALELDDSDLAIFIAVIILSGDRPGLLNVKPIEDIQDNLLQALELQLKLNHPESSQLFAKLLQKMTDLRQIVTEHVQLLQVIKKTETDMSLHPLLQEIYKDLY
Experimental: Analysis of PPARγ activation. The analysis was carried out by using a PPARγ transcription factor ELISA kit (Active Motif, Carlsbad, Calif.), in which an oligonucleotide containing the peroxisome proliferator response element (PPRE) was immobilized onto a 96-well plate. PPARs contained in nuclear extracts bind specifically to this oligonucleotide and are detected through an antibody directed against PPARγ. […] Cells were collected, and nuclear extracts were prepared with a Nuclear Extract kit (Active Motif, Carlsbad, Calif.). Nuclear extracts of the same protein concentration from individual treatments were subject to the PPARγ transcription factor ELISA according to the manufacturer's instruction.

PC-3 xenograft tumors = assay: Xenograft tumor growth (PC-3 tumors in nude mice)
Bcl-2/Bak = molecular target: T3, Bcl-2/Bak (Homo sapiens, UniProt P10415); assay: Co-immunoprecipitation of Bak with Bcl-2 in PC-3 cells; type: cell-based; settings: 50 μM, 12 h, compared to DMSO control
T3 construct: endogenous in cells; host or cells: PC-3 prostate cancer cells
Experimental: (§6) Co-immunoprecipitation. […] After centrifugation at 13000×g for 15 min, the supernatants were collected, pre-incubated with protein A-Sepharose (Sigma, St. Louis, Mo.) for 15 min, and centrifuged at 1000×g for 5 min. The supernatants were exposed to Bcl-2 or Bcl-xL antibodies in the presence of protein A-Sepharose at 4° C. for 2 h. After brief centrifugation, protein A-Sepharose were collected, washed with the aforementioned lysis buffer 2 times, suspended in 2×SDS sample buffer, and subjected to Western blot analysis with antibodies against Bak.

Bcl-xL/Bak = molecular target: T4, Bcl-xL/Bak (Homo sapiens, UniProt Q07817); assay: Co-immunoprecipitation of Bak with Bcl-xL in PC-3 cells; type: cell-based; settings: 50 μM, 12 h, compared to DMSO control
T4 construct: endogenous in cells; host or cells: PC-3 prostate cancer cells
Experimental: as §6

caspase-9 = assay: Caspase-9 activation in PC-3 cells (Western blot); type: cell-based; settings: 24 h
Experimental: as §4, §5

[3] = inhibition of Bak BH3 peptide binding to Bcl-xL, FP, read-out: IC50 Bcl-xl/Bak
[4] = inhibition of Bak BH3 peptide binding to Bcl-2, FP, read-out: IC50 Bcl-2/Bak

T1 sequence (Q07817 1-209 limits assumed): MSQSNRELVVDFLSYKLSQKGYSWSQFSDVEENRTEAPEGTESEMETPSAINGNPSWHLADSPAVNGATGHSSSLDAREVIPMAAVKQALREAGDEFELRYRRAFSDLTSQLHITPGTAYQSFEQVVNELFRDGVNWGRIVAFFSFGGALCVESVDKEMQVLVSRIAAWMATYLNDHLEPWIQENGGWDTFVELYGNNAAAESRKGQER
Chain of Bcl-2 (P10415 whole entry): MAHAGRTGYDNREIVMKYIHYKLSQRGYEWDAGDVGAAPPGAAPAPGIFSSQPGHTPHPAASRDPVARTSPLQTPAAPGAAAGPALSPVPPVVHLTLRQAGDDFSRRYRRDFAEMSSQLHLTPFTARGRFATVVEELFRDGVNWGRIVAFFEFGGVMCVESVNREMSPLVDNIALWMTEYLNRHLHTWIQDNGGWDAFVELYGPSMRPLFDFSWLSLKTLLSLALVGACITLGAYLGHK
T4 sequence (Q07817 whole entry): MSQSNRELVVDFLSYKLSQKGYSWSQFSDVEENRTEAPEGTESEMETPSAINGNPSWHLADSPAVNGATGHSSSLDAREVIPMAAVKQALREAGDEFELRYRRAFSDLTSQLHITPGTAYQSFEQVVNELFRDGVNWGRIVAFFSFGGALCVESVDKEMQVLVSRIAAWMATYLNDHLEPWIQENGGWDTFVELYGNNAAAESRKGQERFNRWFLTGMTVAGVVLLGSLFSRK
T3 sequence (P10415 whole entry): as the sequence (P10415 whole entry) above

IC50 (Bcl-xL; [3]) [µM] | IC50 (Bcl-2; [4]) [µM] | IC50 (PC-3 cells; Homo sapiens, PC-3, PC-3 cells) [µM] | IC50 [2] [µM] | Compound | IC50 [1] [µM] | activity in PPARγ activation (PPARγ) | other results
22 ± 1 | 22 ± 1 | 30 ± 2 | – | Cc1c(C)c2c(c(C)c1O)CCC(C)(COc1ccc(CC3SC(=O)NC3=O)cc1)O2 (centres unmarked) [TG, troglitazone, reference compound] | – | – | IC50 (LNCaP cells): 22 ± 3 µM
13 ± 0.9 | 19 ± 0.8 | 19 ± 0.5 | > 7.5 | Cc1c(C)c2c(c(C)c1OC/C=C/c1ccccc1)CCC(C)(COc1ccc(/C=C3\SC(=O)NC3=O)cc1)O2 (centres unmarked) [TG-10] | 19 | – | –
28 ± 1.4 | 30 ± 1.5 | 22 ± 0.6 | > 7.5 | Cc1c(C)c2c(c(C)c1OC(=O)CCC(=O)O)CCC(C)(COc1ccc(/C=C3\SC(=O)NC3=O)cc1)O2 (centres unmarked) [TG-13] | > 50 | – | –
4.9 ± 1.2 | 4.7 ± 2 | 30 ± 1.1 | > 7.5 | CC(C)=CCOc1c(C)c(C)c2c(c1C)CCC(C)(COc1ccc(/C=C3\SC(=O)NC3=O)cc1-c1ccc(C(F)(F)F)cc1)O2 (centres unmarked) [TG-31] | > 50 | – | –
18 ± 0.8 | 21 ± 1.4 | 17 ± 0.9 | > 7.5 | CCc1ccc(-c2cc(/C=C3\SC(=O)NC3=O)ccc2OCC2(C)CCc3c(C)c(OCC=C(C)C)c(C)c(C)c3O2)cc1 (centres unmarked) [TG-33] | > 50 | – | –
17 ± 2 | 22 ± 3 | 15 ± 1.2 | 13 | CC1(COc2ccc(/C=C3\SC(=O)NC3=O)cc2)CCCCC1 [Δ2-CG, 5-[4-(1-methyl-cyclohexylmethoxy)-benzylidene]-thiazolidine-2,4-dione] | 70 | completely devoid of the ligand binding activity | –
> 50 | > 50 | > 50 | – | CCc1ccc(CCOc2ccc(/C=C3\SC(=O)NC3=O)cc2)nc1 [Δ2-PG, 5-{4-[2-(5-ethyl-pyridin-2-yl)-ethoxy]-benzylidene}-thiazolidine-2,4-dione] | – | completely devoid of the ligand binding activity | IC50 (Bcl-xL; unit inferred, read-out: IC50 for inhibiting BH3-mediated protein interactions (Bcl-xL)): > 50 µM; IC50 (Bcl-2; unit inferred, read-out: IC50 for inhibiting BH3-mediated protein interactions (Bcl-2)): > 50 µM
18 ± 1 | 18 ± 1 | 20 ± 2 | 22 | Cc1c(C)c2c(c(C)c1O)CCC(C)(COc1ccc(/C=C3\SC(=O)NC3=O)cc1)O2 (centres unmarked) [Δ2-TG, 5-[4-(6-hydroxy-2,5,7,8-tetramethyl-chroman-2-ylmethoxy)-benzylidene]-2,4-thiazolidine-dione] | – | completely devoid of the ligand binding activity | IC50 (LNCaP cells): 14 ± 1 µM; level of Bak associated with Bcl-2 (Bcl-2/Bak): significantly reduced; level of Bak associated with Bcl-xL (Bcl-xL/Bak): significantly reduced; caspase-9 activation (caspase-9): dose-dependent

Compound | IC50 (Bcl-xL; [3]) [µM] | IC50 (Bcl-2; [4]) [µM] | IC50 (PC-3 cells; Homo sapiens, PC-3, PC-3 cells) [µM] | IC50 [2] [µM] | IC50 [1] [µM] | activity in PPARγ activation (PPARγ) | other results
CC(C)=CCOc1c(C)c(C)c2c(c1C)CCC(C)(COc1ccc(/C=C3\SC(=O)NC3=O)cc1Br)O2 (centres unmarked) [TG-88] | 1.8 ± 0.2 | 2.8 ± 0.3 | 2.5 ± 0.2 | > 7.5 | – | lacked appreciable activity | IC50 (PC-3 cells; PC-3 cells): 4.2 ± 0.2 µM; extent of tumor growth inhibition (PC-3 xenograft tumors; 100 mg/kg/day oral, after 63 days of treatment): 50%; extent of tumor growth inhibition (PC-3 xenograft tumors; 200 mg/kg/day oral, after 63 days of treatment): 61%; tolerability, signs of toxicity (PC-3 xenograft tumors; 100 and 200 mg/kg/day oral, nude mice): without observable signs of toxicity; body weights (PC-3 xenograft tumors; 100 and 200 mg/kg/day oral, throughout the course of study): stable body weights; gross pathology at necropsy (PC-3 xenograft tumors; after 63 days of treatment): No gross pathological abnormalities
